The results in this text go back to patent US20260207535A1, “CRIBLAGE INHIBITEURS USP8” (COMMISSARIAT A L'ENERGIE ATOMIQUE ET AUX ENERGIES …, priority 2022, published 2026).

SMILES strings stand for the structures.

As a reminder, the IC50 is the concentration that gives 50% inhibition.

The target in assay [1] is T1, Papain (Carica papaya, UniProt P00784).
T1 construct: purchased Sigma P4762
T1 sequence (P00784 134-345): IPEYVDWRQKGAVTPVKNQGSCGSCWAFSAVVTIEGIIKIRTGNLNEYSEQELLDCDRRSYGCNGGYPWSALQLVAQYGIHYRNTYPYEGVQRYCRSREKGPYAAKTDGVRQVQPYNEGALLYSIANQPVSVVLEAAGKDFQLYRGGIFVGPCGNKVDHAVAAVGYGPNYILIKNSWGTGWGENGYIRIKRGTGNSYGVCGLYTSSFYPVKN
The assay can be described thus: Papain inhibition (casein digestion, SDS-PAGE). It counts as biochemical. Here is the method:
Papain (Sigma ref. P4762) and casein (Merck ref. VM874644) were dissolved in 40 mM TrisHCl buffers pH6.8 and pH9.5 respectively. Casein at the concentration of 0.5 μg/μl was incubated with the inhibitory compounds at efficient inhibitory concentration or with DMSO for 15 min and then digested by Papain (2.5 ng/μl) at RT over 45 min. The digestion samples were collected at time: 5, 15, 30 and 45 min. To inactivate the protease Laemmli 2× was added and each sample was heated at 95° C. for 5 min then analyzed with SDS-PAGE and stained with Coomassie Blue.

Assay [2] has as its target T2, Full length USP8 (USP8FL) (Homo sapiens, UniProt P40818).
T2 construct: purchased BostonBiochem E-520
T2 sequence (P40818 1-1118): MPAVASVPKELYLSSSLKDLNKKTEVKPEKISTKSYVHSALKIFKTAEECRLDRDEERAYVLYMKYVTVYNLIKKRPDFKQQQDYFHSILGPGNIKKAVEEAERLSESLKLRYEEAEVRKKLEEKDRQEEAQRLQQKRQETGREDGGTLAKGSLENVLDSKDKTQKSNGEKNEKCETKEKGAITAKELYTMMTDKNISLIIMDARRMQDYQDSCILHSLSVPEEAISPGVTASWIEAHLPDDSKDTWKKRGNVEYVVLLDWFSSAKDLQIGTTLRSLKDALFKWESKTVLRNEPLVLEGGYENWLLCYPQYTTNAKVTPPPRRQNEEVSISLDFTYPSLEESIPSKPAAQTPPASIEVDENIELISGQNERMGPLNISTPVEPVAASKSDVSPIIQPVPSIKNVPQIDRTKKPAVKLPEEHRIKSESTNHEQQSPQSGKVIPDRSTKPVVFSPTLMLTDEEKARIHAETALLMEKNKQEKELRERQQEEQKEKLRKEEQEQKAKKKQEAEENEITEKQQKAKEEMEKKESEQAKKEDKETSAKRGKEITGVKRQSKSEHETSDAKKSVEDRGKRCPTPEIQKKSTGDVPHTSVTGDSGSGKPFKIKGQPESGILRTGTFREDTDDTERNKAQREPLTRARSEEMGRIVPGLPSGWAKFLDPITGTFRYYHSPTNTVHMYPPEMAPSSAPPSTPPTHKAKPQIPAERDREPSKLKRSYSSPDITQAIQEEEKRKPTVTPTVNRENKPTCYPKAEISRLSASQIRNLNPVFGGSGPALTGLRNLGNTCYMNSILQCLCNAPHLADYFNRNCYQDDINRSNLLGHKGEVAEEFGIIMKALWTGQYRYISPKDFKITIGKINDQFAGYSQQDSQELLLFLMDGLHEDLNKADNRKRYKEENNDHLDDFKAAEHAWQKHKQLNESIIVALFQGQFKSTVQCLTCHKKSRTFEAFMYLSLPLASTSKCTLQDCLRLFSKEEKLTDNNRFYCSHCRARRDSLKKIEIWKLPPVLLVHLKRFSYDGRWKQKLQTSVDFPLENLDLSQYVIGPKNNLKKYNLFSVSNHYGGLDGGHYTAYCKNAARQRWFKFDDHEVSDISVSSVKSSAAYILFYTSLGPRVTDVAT
In words: USP8FL (full length USP8) enzymatic inhibition, Ub-Rhodamine 110 hydrolysis in L-cysteine buffer. It counts as biochemical. As for the experimental part: USP8 FL (USP8 Full Length) was incubated at a concentration of 75 nM in the presence of Ub-Rho (UBIQUIGENT ref. 60-0117-050) at a final concentration of 0.1 μM, in conditions ensuring linearity of enzyme activity throughout the assay in a specific buffer. Compounds were added to the reaction mix at different doses just before the substrate. The enzymatic reaction kinetics were monitored by measuring fluorescence elicited by the hydrolysis of Ub-Rho over 30 min.
In this setup, an in-house purified catalytic domain of USP8 (USP8CD) was used at a concentration of 80 nM in the presence of the artificial substrate Ubiquitin-Rhodamine 110 (Ub-Rho) (ref: 60-0117-050 Ubiquigent) at a final concentration of 0.1 μM, in conditions ensuring linearity of enzyme activity throughout the assay incubation time. Enzymatic assay was performed in a Tris HCl buffer (40 mM Tris HCl pH 7.4, Ovalbumine 0.5 mg/ml, Cysteine HCl 5.5 mM). Compounds to be tested were added to the reaction mix and incubated with enzyme for 20 min, before the substrate. The enzymatic reaction kinetics were monitored by measuring fluorescence elicited by the hydrolysis of the peptidyl Ub-Rho over 30 minutes. The negative control was the solvent DMSO at 1%.
Full length USP8 (USPBFL) (BostonBiochem ref. E-520) were used at a concentration of 75 nM in the presence of a ubiquitin substrate, i.e., the Ub-Rhodamine 110 (Ub-Rho) (Ubiquigent ref. 60-0117-050) at a final concentration of 0.1 μM. Enzymatic assays were performed as described for USP8-CD except that USP-FL was used at a concentration of 75 nM. The compounds were used at a final concentration of 0.1, 1, 5, 10, 50 and 100 μM in DMSO 0.5%. The USP8 catalytic activity was monitored both before adding the substrate (TO) and after twenty minutes of incubation at room temperature (Final Time TF). The enzymatic reaction kinetics were monitored by measuring fluorescence elicited by the hydrolysis of the Ub-Rho bound over 30 minutes.

Consider `Cc1cc(C(C#N)c2ccc(Cl)cc2)c(Cl)cc1NC(=O)c1cc(I)cc(I)c1O` (stereo not drawn) [Closantel, reference compound], for which the activity against papain result in assay [1] was “not active”. In addition, the “activity against USP8 (CD and FL)” value in assay [2] (USP8 CD and FL) is recorded as “active”. Further, in assay [2] (USP8 FL 75 nM, Ub-Rho 0.1 μM, L-cysteine buffer, read-out: USP8FL inhbition IC50 [μM] (CI: Confidence Interval)), the IC50 turned out to be 12 µM.
